Experimental data as given in patent US10745405B2, “Glucuronide prodrugs of Janus kinase inhibitors” (THERAVANCE BIOPHARMA R&D IP, LLC, priority 2017, dated 2020).

What was measured:
[1] = system: β-glucuronidase in rat colon feces; assay: Rat colon fecal homogenate stability assay; assay type: in vitro ADME; conditions: male, Sprague Dawley, rat colon fecal supernatant-homogenate; in vitro half-life of the prodrug in rat fecal supernatant-homogenate, anaerobic, 10 μM substrate; read-out: T½
Excerpt: The compounds of the present invention contain a glucuronide prodrug moiety that is expected to be cleaved by β-glucuronidase enzyme to release a JAK inhibitor (e.g., ruxolitinib, baricitinib or oclacitinib). The objective of this assay was to determine the half-life for compounds of the present invention in the presence of β-glucuronidase in rat colon feces. Following sacrifice of a naïve male Sprague Dawley rat (˜300 g) by cardiac puncture exsanguination, the colon was ligated and removed to an anaerobic chamber (AS-580, Anaerobe Systems). The fecal content was removed within the chamber and was diluted 1:10 with phosphate buffer (1 gram fecal content to 9 mL phosphate buffer) and the resulting mixture was homogenized using a handheld Omni Tissue Master. The fecal homogenate was centrifuged at 2000 g for 10 min to remove bulk material and the supernatant was removed and used for the incubations. DMSO stock solutions (10 mM) of the test compounds and sulfasalazine (control) were prepared. Sulfasalazine was used as a positive control to confirm viability of the fecal supernatant-homogenate (see, e.g., Azad Khan et al., Clinical Science (1983) 64, 349-354). If the in vitro half-life (T½) for sulfasalazine in the fecal sample was less than 30 min, the fecal sample was deemed to be viable and in true anaerobic conditions. However, if the T½ for sulfasalazine was greater than 30 min, the fecal sample was typically contaminated with oxygen and was not viable. The final substrate concentration of each assay was 10 μM. Reactions were started by adding a 5 μL aliquot of diluted test compound stock solution into 300 μL of rat fecal supernatant-homogenate. At 0, 15, 50, 85 and 120 min post reaction initiation, a 50 μL aliquot was removed and added to a mixture of 200 μL of acetonitrile with 3% formic acid and an internal standard. All samples were centrifuged at 2000 g for 10 min after which 50 μL of supernatant was diluted into 150 μL of water for analysis on an LC-MS system. In vitro half-lives (T½) for the test compounds were calculated as follows: T½=0.693/elimination rate constant.

[2] = Oral pharmacokinetics in mouse assay; assay type: in vivo; conditions: liberated JAK inhibitor in colon tissue, AUC0-6 h, single PO dose 5 mg/kg of prodrug, male Balb/c mice
Method: When cleaved by β-glucuronidase enzyme, the compounds of the present invention release a JAK inhibitor (e.g., ruxolitinib, baricitinib or oclacitinib). The object of this assay was to determine JAK inhibitor exposure (AUC0-6 h) in colon tissue and plasma following oral dosing of compounds of the present invention in mice. Male Balb/c mice (n=2/time point) received a single PO oral gavage dose (5 mg/kg in 1:20 mixture of 5% DMSO and 1% HPMC) of the test compound. At 0.5, 2, 6 and 24 h post-dosing, mice were sacrificed via cardiac puncture exsanguination and blood samples were taken and placed into sample tubes (Microtainer, Becton, Dickinson and Company) containing sodium fluoride and then placed on ice. Plasma was obtained by centrifugation (Eppendorf centrifuge, 5804R) for 4 min at approximately 12,000 rpm at 4° C. The colons were removed from the exsanguinated mice and the colon fecal contents were gently removed. The colons were flushed with saline and patted dry. The colons were then homogenized in 3× volume of sterile water using a tissue homogenizer (Precellys homogenizer, Bertin Instruments) at approximately 4° C. All samples were stored at −80° C. for later bioanalysis. The concentration of JAK inhibitor (e.g., ruxolitinib, baricitinib or oclacitinib) in each sample was determined as follows: the plasma and colon homogenate samples were vortexed, combined with a 50 μL aliquot of rat plasma, extracted with 200 μL of ACN containing an internal standard and quantified against the internal standard by LC-MS. An area-under-the-concentration curve (AUC0-6 h) was calculated for plasma and colon test compound and liberated JAK inhibitor. A key parameter to assess suitability for localized delivery of the JAK inhibitor to the colon was the JAK inhibitor colon to plasma AUC ratio.

half-life at 10 μM [1]	Colon AUC [2]	Structure (SMILES)
< 5 min	7.4 µg·h/g	CN(CCN(C)C(=O)n1ccc2c(-c3cnn([C@H](CC#N)C4CCCC4)c3)ncnc21)C(=O)OCc1ccc(O[C@@H]2O[C@H](C(=O)O)[C@@H](O)[C@H](O)[C@H]2O)c([N+](=O)[O-])c1 [Compound VII-1, (2S,3S,4S,5R,6S)-6-(4-((((2-(4-(1-((R)-2-Cyano-1-cyclopentylethyl)-1H-pyrazol-4-yl)-N-methyl-7H-pyrrolo[2,3-d]pyrimidine-7-carboxamido)ethyl)-(methyl)carbamoyl)oxy)methyl)-2-nitrophenoxy)-3,4,5-trihydroxytetrahydro-2H-pyran-2-carboxylic Acid]
< 5 min	13.5 µg·h/g	CNS(=O)(=O)C[C@H]1CC[C@H](N(C)c2ncnc3c2ccn3C(=O)N(C)CCN(C)C(=O)OCc2ccc(O[C@@H]3O[C@H](C(=O)O)[C@@H](O)[C@H](O)[C@H]3O)c([N+](=O)[O-])c2)CC1 [Compound VII-3, (2S,3S,4S,5R,6S)-3,4,5-Trihydroxy-6-(4-(((methyl(2-(N-methyl-4-(methyl((1r,4r)-4-((N-methylsulfamoyl)methyl)cyclohexyl)amino)-7H-pyrrolo[2,3-d]pyrimidine-7-carboxamido)ethyl)carbamoyl)oxy)methyl)-2-nitrophenoxy)tetrahydro-2H-pyran-2-carboxylic Acid]
< 5 min	17.3 µg·h/g	CCS(=O)(=O)N1CC(CC#N)(n2cc(-c3ncnc4c3ccn4C(=O)N(C)CCN(C)C(=O)OCc3ccc(O[C@@H]4O[C@H](C(=O)O)[C@@H](O)[C@H](O)[C@H]4O)c([N+](=O)[O-])c3)cn2)C1 [Compound VII-2, (2S,3S,4S,5R,6S)-6-(4-((((2-(4-(1-(3-(Cyanomethyl)-1-(ethylsulfonyl)azetidin-3-yl)-1H-pyrazol-4-yl)-N-methyl-7H-pyrrolo[2,3-d]pyrimidine-7-carboxamido)ethyl)-(methyl)carbamoyl)oxy)methyl)-2-nitrophenoxy)-3,4,5-trihydroxytetrahydro-2H-pyran-2-carboxylic Acid]
